According to ChEMBL document CHEMBL5143637, “Design, synthesis and antibacterial activity against pathogenic mycobacteria of conjugated hydroxamic acids, hydrazides and O-alkyl/O-acyl protected hydroxamic derivatives” (Bioorg Med Chem Lett, 2022):
In brackets after ≈: the same amount, converted by molar mass.

System: Mycobacterium tuberculosis variant bovis
Test: Antimycobacterial activity against Mycobacterium bovis BCG assessed as inhibition of bacterial growth incubated for 4 days by alamar blue assay
Assay type: functional
Details: 96 h, time 4 day

SMILES: CCCC[C@H](CN(O)C=O)C(=O)N1CCC[C@H]1C(=O)Nc1ccccn1
- MIC: 0.2 µg/mL (≈ 0.552 µM)
